Measured values: PMC10014103, “The immunometabolite itaconate stimulates OXGR1 to promote mucociliary clearance during the pulmonary innate immune response” (The Journal of Clinical Investigation, 2023)

Legend:
human OXGR1 [1] = molecular target: T1, human OXGR1 (Homo sapiens, UniProt Q96P68); experiment: Aequorin assay (calcium mobilization) in HEK293 cells overexpressing human OXGR1; format: cell-based
Protocol: (§1) Thirty-six hours after transfection, cells were maintained in serum-free medium for 12 hours and then loaded with 5 μM coelenterazine for 3 hours. Cells were trypsinized and resuspended at a density of 5 × 10^5 cells/mL in HBSS supplemented with 10 mM HEPES and 0.5% BSA. Cell suspensions of 100 μL were aliquoted into 96-well plates.

FLAG-tagged OXGR1 = molecular target: T2, FLAG-tagged OXGR1 (Homo sapiens, UniProt Q96P68); experiment: Endocytosis assay of FLAG-tagged OXGR1 in HEK293 cells; format: cell-based; conditions: WT OXGR1, within 10 minutes of ligand treatment
T2 construct: expressed in transfected cells
Protocol: For endocytosis assays, HEK293 cells stably expressing FLAG-OXGR1 were chilled on ice in DMEM medium supplemented with 30 mM HEPES for 10 minutes. […] Unbound antibody was then washed off with prechilled HBSS buffer. […] After ligand stimulation, cells were fixed and permeabilized. Subcellular localization of FLAG-tagged OXGR1 was detected using FITC-donkey anti-rabbit antibody (Invitrogen, Thermo Fisher Scientific), and nuclei were stained with DAPI (MilliporeSigma). Immunofluorescence images were captured with a Leica SP8 laser-scanning confocal microscope.

human OXGR1 [2] = molecular target: T1, human OXGR1; experiment: Fluo-4 assay in HEK293 cells expressing human OXGR1; format: cell-based
Protocol: For the Fluo-4AM assay, OXGR1-expressing cells were loaded with 2 μM Fluo-4AM for 30 minutes at 37°C. Excess Fluo-4AM was then washed off with HBSS buffer. After incubation at 37°C for another 10 minutes, cells were transferred onto a 96-well plate.

mouse OXGR1 = molecular target: T3, mouse OXGR1 (Mus musculus, UniProt Q6IYF8); experiment: Aequorin assay (calcium mobilization) in HEK293 cells overexpressing mouse OXGR1; format: cell-based; conditions: EC50, aequorin assay, mOXGR1 in HEK293 cells
T3 construct: expressed in transfected cells; host or cells: HEK293
Protocol: as §1

[3] = test system: primary respiratory epithelial cells from Oxgr1+/+ and Oxgr1–/– mice; experiment: Calcium imaging (Fluo-4AM) of primary mouse trachea epithelial cells; format: cell-based; conditions: 670 μM ITA or 100 μM ATP
Protocol: For calcium imaging of human primary bronchial epithelial cells, cells were infected with 2 CRISPR lentiviruses targeting OXGR1 and cultured for 2 days before calcium imaging. For calcium imaging of primary mouse cells, freshly isolated mouse tracheas were cut into rings, placed onto collagen-coated dishes, and cultured in DMEM supplemented with 10% FBS. Cells were loaded with 5 μM Fluo-4AM for 30 minutes in HBSS buffer, washed twice, and incubated for another 15 minutes for fully deesterification of Fluo-4AM. Cells loaded with Fluo-4AM were monitored with the BioTek Cytation 5 Cell imaging system every 300 ms for a total of 1.5 minutes after ligand administration. Fluorescence was quantified with ImageJ software (NIH).

mouse trachea = experiment: Ex vivo trachea culture, cilia beating-derived fluorescent bead movement; conditions: 500 μM ITA or 100 μM ATP
Protocol: Tracheas were harvested from mice and cut longitudinally through the middle of the trachealis muscle to expose the lumen of the trachea. Tracheas were then transferred into HBSS buffer and equilibrated for 30 minutes. With the lumen facing down, trachea tissues were transferred into 2 mL HBSS buffer supplemented with 0.5% methylcellulose, red fluorescent beads, 30 mM HEPES, and the indicated ligand. Bead flow was monitored with the BioTek Cytation 5 cell imaging system. Twenty individual beads were tracked from different fields of view in each condition, and the speed of each bead was calculated by […].

T3 sequence (Q6IYF8 whole entry): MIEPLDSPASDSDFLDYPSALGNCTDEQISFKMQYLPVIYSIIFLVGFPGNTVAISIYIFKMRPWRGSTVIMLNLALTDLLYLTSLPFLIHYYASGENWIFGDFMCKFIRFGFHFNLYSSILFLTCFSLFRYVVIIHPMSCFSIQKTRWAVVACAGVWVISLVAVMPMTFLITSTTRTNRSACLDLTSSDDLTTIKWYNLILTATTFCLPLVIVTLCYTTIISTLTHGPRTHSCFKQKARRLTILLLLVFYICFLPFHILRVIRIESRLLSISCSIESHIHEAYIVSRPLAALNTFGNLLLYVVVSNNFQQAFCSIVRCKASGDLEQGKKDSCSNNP

calcium response (agonist effect) (human OXGR1 [1]; HEK293 cells overexpressing human OXGR1, aequorin)	endocytosis of OXGR1 (FLAG-tagged OXGR1)	EC50 (human OXGR1 [2]) [µM]	EC50 (mouse OXGR1) [µM]	EC50 (human OXGR1 [1]) [µM]	Compound	effect on α-KG– or ITA-triggered intracellular Ca2+ release (human OXGR1 [1]; addition of LTE4, OXGR1-expressing HEK293 cells)	calcium mobilization, Oxgr1+/+ cells [3]	calcium mobilization, Oxgr1–/– cells [3]	movement of beads, trachea from Oxgr1+/+ mice (mouse trachea)	movement of beads, trachea from Oxgr1–/– mice (mouse trachea)
failed to show any agonizing effect	failed to show any agonizing effect				CCCCC/C=C\C\C=C/C=C/C=C/[C@@H](SC[C@H](N)C(=O)O)[C@@H](O)CCCC(=O)O [LTE4, Leukotriene E4, reference compound]	did not prevent, and even moderately enhanced				
	rapid endocytosis of OXGR1 was triggered	161 ± 34.7	241 ± 61.1	248 ± 58.6	O=C(O)CCC(=O)C(=O)O [α-KG, α-ketoglutaric acid, reference compound]					
					Nc1ncnc2c1ncn2[C@@H]1O[C@H](COP(=O)(O)OP(=O)(O)OP(=O)(O)O)[C@@H](O)[C@H]1O [ATP, reference compound]		normal calcium release	normal calcium release	comparable speed of bead movement	comparable speed of bead movement
